Measurements: US11091509B2, “HPPK inhibitors useful as antibacterial agents” (priority 2016, dated 2021)
pKd: −log10 of the molar value. Where two headings read alike, the source gives them in different places.

Biological target: HPPK (Escherichia coli, UniProt P26281)
Assay: HPPK binding study by fluorometric titration (Kd)
Settings: for affinity compared with previously known HPPK inhibitors: comparison in words
Protocol: Binding studies were carried out at room temperature. Protein (HPPK) and ligand stock solutions were made in 100 mM Tris-HCl, pH 8.3, and their concentrations were determined spectrophotometrically using the following extinction coefficients: 21600 M^−1 cm^−1 at 280 nm for HPPK and 7124 M^−1 cm^−1 at 380 nm for the tetrahydropteridine bisubstrate inhibitors of Formula I. A 3-mL dilute inhibitor solution in a fluorometric cuvette was titrated with the protein stock solution. Fluorescence was measured on a Horiba Jobin Yvon FluoroMax-4 fluorometer. The excitation wavelength and slit were 364-380 and 2-3 nm, respectively, and the emission wavelength and slit were 450-482 and 2-5 nm, respectively. […] For these HPPK preparations, a control experiment, in which a 3-mL buffer solution was titrated with the protein solution, was performed. The control data was subtracted from the titration data. The corrected titration data was then analyzed by nonlinear least-squares regression using the software Origin and the equation: […]
where Fobs is the observed fluorescence, εf and εb are the fluorescence coefficients of the ligand in the free and protein-bound states, respectively, Lt is the total concentration of the ligand, and Et is the total concentration of HPPK. Lt and Et were varied during the titration process according to the following expressions:
where E0 is the concentration of the HPPK stock solution, L0 is the initial concentration of the ligand, V0 is the initial volume of the titration, and ΔV is the total volume of the added HPPK solution.

[1] = room temperature, 100 mM Tris-HCl pH 8.3, inhibitor titrated with HPPK, fluorescence, nonlinear least-squares analysis, read-out: Kd

Chain of HPPK (P26281 whole entry): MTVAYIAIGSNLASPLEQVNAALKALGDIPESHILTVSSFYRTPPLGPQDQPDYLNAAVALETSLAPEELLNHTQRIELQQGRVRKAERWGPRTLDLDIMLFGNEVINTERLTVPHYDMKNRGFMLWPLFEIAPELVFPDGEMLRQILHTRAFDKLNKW

SMILES	pKd [1]	pKd	affinity compared with previously known HPPK inhibitors
CC1(C)Nc2nc(N)[nH]c(=O)c2N=C1C(=O)NC1CCN(CCSC[C@H]2O[C@@H](n3cnc4c(N)ncnc43)[C@H](O)[C@@H]2O)CC1 [Compound 101, 2-amino-N-(1-(2-((((2S,3S,4R,5R)-5-(6-amino-9H-purin-9-yl)-3,4-dihydroxytetrahydrofuran-2-yl)methyl)thio)ethyl)piperidin-4-yl)-7,7-dimethyl-4-oxo-3,4,7,8-tetrahydropteridine-6-carboxamide]	4.94	–	–
CC1(C)Nc2nc(N)[nH]c(=O)c2N=C1C(=O)NCC(=O)N(CC(=O)NC[C@H]1O[C@@H](n2cnc3c(N)ncnc32)C(O)C1O)CP(=O)(O)O (stereo partly shown) [Compound 114]	–	5.74	significantly higher
CC1(C)Nc2nc(N)[nH]c(=O)c2N=C1C(=O)NCCN(CC(=O)NC[C@H]1O[C@@H](n2cnc3c(N)ncnc32)C(O)C1O)CP(=O)(O)O (stereo partly shown) [Compound 115]	–	5.54	–
CC1(C)Nc2nc(N)[nH]c(=O)c2N=C1C(=O)NCCN(CCSC[C@H]1O[C@@H](n2cnc3c(N)ncnc32)[C@H](O)[C@@H]1O)CP(=O)(O)O [Compound 118, (((2-(2-amino-7,7-dimethyl-4-oxo-3,4,7,8-tetrahydropteridine-6-carboxamido)ethyl)(2-((((2S,3S,4R,5R)-5-(6-amino-9H-purin-9-yl)-3,4-dihydroxytetrahydrofuran-2-yl)methyl)thio)ethyl)amino)methyl)phosphonic acid]	–	6.40	significantly higher
CC1(C)Nc2nc(N)[nH]c(=O)c2N=C1C(=O)NCCN1CC[C@@H](SC[C@H]2O[C@@H](n3cnc4c(N)ncnc43)[C@H](O)[C@@H]2O)C[C@@H]1C(=O)O [Compound 120, (2R,4R)-1-(2-(2-amino-7,7-dimethyl-4-oxo-3,4,7,8-tetrahydropteridine-6-carboxamido)ethyl)-4-((((2S,3S,4R,5R)-5-(6-amino-9H-purin-9-yl)-3,4-dihydroxytetrahydrofuran-2-yl)methyl)thio)piperidine-2-carboxylic acid]	6.52	–	–
